# In publication PMC6678097, “Machilin A Inhibits Tumor Growth and Macrophage M2 Polarization Through the Reduction of Lactic Acid” (Cancers, 2019):
# Columns and labels:
# LLC tumors = experiment: Tumor allograft model, LLC cells (tumor growth, immunohistochemistry); type: in vivo, C57BL/6 mice
# Experimental: LLC and CT26 cells were suspended separately in PBS (5 × 10^5 cells/100 µL PBS) and inoculated in subcutaneously on the back of 7-week-old C57BL/6 mice and BALB/c mice respectively (Orient Bio Inc., Seongnam, Korea; n = 7). One day after the inoculation with tumor cells, mice of the control group (n = 7) were intraperitoneally administrated 100 µL of PBS per day for 18 days. Each of the MA-treated mice were intraperitoneally administrated 0.02, 0.2, or 1 mg MA, respectively, in 100 µL PBS per 20 g body weight, each day for 18 days. All mice were euthanized 19 days after inoculation with the tumor cells, and the tumors were excised and weighed. Length (l) and width (w) of each tumor were measured using a caliper, and the respective volume (V) was calculated according to the formula V = [(l × w^2)/2]. Tumors were immediately removed from euthanized mice and prepared for histological examinations. To test liver and kidney toxicity of MA, at the end of the in vivo allograft experiment blood was collected from each mouse and serum was separated. Biochemical analyses of aspartate aminotransferase (AST), alanine aminotransferase (ALT), creatinine, and blood urea nitrogen (BUN) were performed using a commercial service (Green Cross Co., Yongin, Korea). All experimental procedures followed the Guidelines for the Care and Use of Laboratory Animals of the National Institutes of Health of Korea, and were approved by the Institutional Animal Care and Use Committee of Pusan National University, Republic of Korea (PNU-2018-1954, Date of approval: 27th June 2018).
# Tumor specimens were immediately removed from euthanized mice, fixed in PBS with 3.7% formalin, and embedded in paraffin for immunohistochemical analyses. The paraffin sections were immunostained using an antibody specific to the endothelial cell marker CD31 (ab28364, Abcam, Cambridge, UK), macrophage marker CD68 (ab125212, Abcam, Cambridge, UK), and M2 phenotype macrophage marker CD206 (ab64693, Abcam, Cambridge, UK). The staining was visualized using a Dako EnVision kit (Dako, Santa Clara, CA, USA), and counterstained with hematoxylin.
# LDHA [1] = biological target: T1, LDHA (Homo sapiens, UniProt P00338); experiment: Intracellular LDH activity in lysates of MA-treated cancer cells; type: cell-based; design: One microgram of total protein from cell or tissue lysates was used for intracellular or in vivo LDH assays; endogenous in cells; host or cells: WiDr, DLD-1, RKO, HT29, MCF7, Huh-7, HepG2, Hep3B, HCC-95, NCI-H1793; conditions: for IC50: normoxic
# Experimental: (§1) A purification of recombinant LDHA was performed as described previously. LDH activity was determined by measuring the decrease of absorbance at 340 nm due to the oxidation of NADH in 20 mM HEPES-K^+, 0.05% bovine serum albumin (BSA), 20 μM NADH, and 2 mM pyruvate (Sigma-Aldrich, St. Louis, MO, USA) at a pH of 7.2 using a spectrofluorometer (Spectramax M2, Molecular Devices, San Jose, CA, USA; excitation 340 nm; emission 460 nm), as described previously. Ten nanograms of recombinant LDHA protein were used in the in vitro LDH activity assay. One microgram of total protein from cell or tissue lysates was used for intracellular or in vivo LDH assays.
# LDHA [2] = biological target: T1, LDHA; experiment: Surface plasmon resonance (SPR) biosensor analysis of LDHA binding; design: Full-length LDHA (residues 1–331) was obtained from cDNA by polymerase chain reaction (PCR); inferred from pET-28a vector and Ni-NTA purification; made in house; host or cells: E. coli BL21 (DE3); conditions: 25 °C, read-out: apparent KD of binding to LDHA
# Experimental: The apparent dissociation constants (KD) between LDHA and Machilin A were measured using a Biacore T100 biosensor (GE Healthcare, Chicago, IL, USA). […] A total of 150 μL LDHA (50 μg/mL) in 10 mM sodium acetate (pH 5.5) was coupled via injection for 15 min at 10 μL/min, followed by injection of 1 M ethanolamine to deactivate the residual amines. To measure kinetics at 25 °C, chemical compounds with concentrations ranging from 500 to 62 μM were prepared by dilution in running buffer (10 mM HEPES, 150 mM NaCl, 0.005% v/v surfactant P20, and 1% DMSO) at a pH of 7.4. The immobilized ligand was regenerated by injecting 10 μL of 50 mM NaOH at a rate of 10 μL/min during the cycles.
# LDHA [3] = experiment: LDH activity and LDHA expression in LLC tumor tissue lysates; type: in vivo, mice
# Experimental: as §1
# LLC and CT26 cells were suspended separately in PBS (5 × 10^5 cells/100 µL PBS) and inoculated in subcutaneously on the back of 7-week-old C57BL/6 mice and BALB/c mice respectively (Orient Bio Inc., Seongnam, Korea; n = 7). One day after the inoculation with tumor cells, mice of the control group (n = 7) were intraperitoneally administrated 100 µL of PBS per day for 18 days. Each of the MA-treated mice were intraperitoneally administrated 0.02, 0.2, or 1 mg MA, respectively, in 100 µL PBS per 20 g body weight, each day for 18 days. […] Length (l) and width (w) of each tumor were measured using a caliper, and the respective volume (V) was calculated according to the formula V = [(l × w^2)/2]. […]
# phospholipase Cγ1 = tested on: phospholipase Cγ1; design: method as in PMID 15554262; conditions: cited from earlier work
smiles,measurement,setting,value
"C[C@H](Cc1ccc2c(c1)OCO2)[C@@H](C)Cc1ccc2c(c1)OCO2 [MA, bis(3,4-methylenedioxy)-8,8’-lignan]",expression of CD206 in macrophages in tumor tissues,LLC tumors; LLC tumors of mice,markedly inhibited
same,formation of new vessels in tumors (CD31),LLC tumors; LLC tumors of mice,suppressed the formation of new vessels
same,presence of macrophages that infiltrated tumor tissues (CD68),LLC tumors; LLC tumors of mice,no change
same,"volume, weight, and size of tumors","LLC tumors; LLC, 1, 10, or 50 µg/g body weight intraperitoneally daily",significantly reduced
same,IC50,LDHA [1]; DLD-1 cells,129 ± 24.8 µM
same,IC50,LDHA [1]; HCC-95 cells,112 ± 10.1 µM
same,increase of LDHA activity in hypoxic condition,"LDHA [1]; HT29, machilin A 30 μM, hypoxia",significantly reduced
same,IC50,LDHA [1]; HT29 cells,48.4 ± 4.33 µM
same,IC50,LDHA [1]; Hep3B cells,48.3 ± 4.13 µM
same,IC50,LDHA [1]; HepG2 cells,101 ± 40.5 µM
same,IC50,LDHA [1]; Huh7 cells,85.1 ± 20.9 µM
same,IC50,LDHA [1]; MCF-7 cells,61.2 ± 3.02 µM
same,IC50,LDHA [1]; NCI-H1793 cells,64 ± 5.61 µM
same,IC50,LDHA [1]; RKO cells,73.7 ± 20.7 µM
same,IC50,LDHA [1]; WiDr cells,61.9 ± 8.02 µM
same,Kd,LDHA [2],29 µM
same,activity of LDH in LLC cell allografts,LDHA [3]; tumor tissue lysates,clearly inhibited
same,expression of LDHA in LLC cell allografts,LDHA [3]; western blot of tumor tissue,did not affect
same,effect on phospholipase Cγ1,phospholipase Cγ1,inhibiting phospholipase Cγ1
